The values below come from PubChem BioAssay (NCI).

Some test systems named below: SW-620 colon; SNB-75 CNS; EKVX NSCLC; MOLT-4 leukemia; HCT-116 colon; OVCAR-5 ovarian; TK-10 renal; UACC-62 melanoma; MALME-3M melanoma; A549 NSCLC.
What all share (experiment): inhibition of tumour cell growth, NCI panel, 48 h

SMILES strings stand for the structures.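 Protocol summary: plate cells (96-well), add compound at 5 concentrations, incubate 48 h, interpolate endpoints linearly. GI50 is the concentration that inhibits growth by half. At the TGI there is no net growth.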 Bounds are passed on as bounds.

For the compound `O=S(O)CCCCSSCCCCSSCCCCS(=O)O`, the TGI is over 100 µM in the experiment on SW-620 colon; over 100 µM with SNB-75 CNS; 66.3 µM in the experiment with EKVX NSCLC; 43.9 µM in the experiment on MOLT-4 leukemia; over 100 µM in the experiment on HCT-116 colon; over 100 µM in the experiment with OVCAR-5 ovarian. For the same compound, the TGI in the experiment with TK-10 renal is 91.4 µM; with UACC-62 melanoma, 55.3 µM; with MALME-3M melanoma, 84.2 µM; in the experiment on A549 NSCLC it was over 100 µM.
Consider `CSc1nc(NC2OC(COC(C)=O)C(OC(C)=O)C(OC(C)=O)C2OC(C)=O)c2c(OC(C)=O)c(C)c(=O)oc2n1` (centres undefined), for which the TGI in the experiment on SW-620 colon, with SNB-75 CNS, in the experiment with EKVX NSCLC, in the experiment on MOLT-4 leukemia, with HCT-116 colon and in the experiment with OVCAR-5 ovarian was over 100 µM each time. The TGI in the experiment with TK-10 renal, in the experiment on UACC-62 melanoma, in the experiment with MALME-3M melanoma and in the experiment with A549 NSCLC was over 100 µM each time.
As to `COc1cc2c(/C=C3/C(=O)Nc4cccc(Cl)c43)c(Cl)n(Cc3ccccc3)c2cc1C`, the GI50 is 6.11 µM with SW-620 colon; 21.1 µM with SNB-75 CNS; 6.84 µM in the experiment on EKVX NSCLC; 3.7 µM in the experiment with MOLT-4 leukemia; 4.19 µM with HCT-116 colon; 24.4 µM in the experiment on OVCAR-5 ovarian. In addition, the GI50 with TK-10 renal was 10.4 µM; in the experiment on UACC-62 melanoma, 1.67 µM; in the experiment with MALME-3M melanoma it was 14.2 µM; in the experiment with A549 NSCLC, 4.76 µM. For the same compound, the TGI in the experiment with SW-620 colon was over 100 µM; in the experiment with SNB-75 CNS it was over 100 µM; with EKVX NSCLC, over 26.4 µM; in the experiment with MOLT-4 leukemia, over 100 µM; in the experiment on HCT-116 colon, 55.6 µM; in the experiment with OVCAR-5 ovarian, over 71.4 µM. For the same compound, the TGI with TK-10 renal was over 76.2 µM; with UACC-62 melanoma, 24.1 µM; in the experiment on MALME-3M melanoma, 41.4 µM; in the experiment with A549 NSCLC, over 100 µM.
As for `NC(N)=NC(N)=Nc1cc2ccccc2c2ccccc12`, the GI50 in the experiment with SW-620 colon was 6.5 µM; in the experiment with SNB-75 CNS, 5.12 µM; with EKVX NSCLC, 12 µM; in the experiment on MOLT-4 leukemia it was 2.91 µM; in the experiment with HCT-116 colon, 5.33 µM; with OVCAR-5 ovarian, 11 µM. Further, the GI50 is 6.08 µM in the experiment with TK-10 renal, 12.1 µM with UACC-62 melanoma, 7.16 µM in the experiment on MALME-3M melanoma and 4.58 µM in the experiment on A549 NSCLC. In addition, the TGI in the experiment with SW-620 colon was 21.4 µM; in the experiment with SNB-75 CNS, 19.9 µM; in the experiment with EKVX NSCLC, 29.1 µM; with MOLT-4 leukemia, 13.7 µM; in the experiment on HCT-116 colon, 18.3 µM; in the experiment with OVCAR-5 ovarian it was 24.3 µM. The TGI in the experiment on TK-10 renal stood at 20.5 µM; in the experiment with UACC-62 melanoma, 25.8 µM; in the experiment with MALME-3M melanoma, 22.1 µM; in the experiment with A549 NSCLC it was 18.1 µM.
Turning to `CCOC(=O)c1c(C)n(Cc2ccc(OC)cc2)c2c1cc(O)c1[nH]c3c(c12)CCCC3`, the GI50 with SW-620 colon was 3.72 µM; in the experiment with SNB-75 CNS, 4.77 µM; in the experiment with EKVX NSCLC, 4.9 µM; with HCT-116 colon it was 2.74 µM; in the experiment with OVCAR-5 ovarian, 2.39 µM; with TK-10 renal, 12.5 µM. The GI50 with UACC-62 melanoma was 1.97 µM; with MALME-3M melanoma, 2.85 µM; with A549 NSCLC, 8.71 µM. Also, the TGI in the experiment on SW-620 colon was 13.9 µM; in the experiment with SNB-75 CNS, over 100 µM; with EKVX NSCLC, 52.5 µM; in the experiment with HCT-116 colon, 12.1 µM; with OVCAR-5 ovarian, 17.5 µM; with TK-10 renal, 52.9 µM. Moreover, the TGI was found to be 4.61 µM with UACC-62 melanoma, 18.4 µM in the experiment on MALME-3M melanoma and 71.9 µM with A549 NSCLC.
As for `CC(C)CSc1nc(Nc2ccccc2)c(C#N)c(-c2ccc(F)cc2)n1`, the GI50 is 8.63 µM in the experiment with SW-620 colon; 1.24 µM in the experiment on SNB-75 CNS; 1.73 µM with EKVX NSCLC; 11 µM in the experiment on MOLT-4 leukemia; 2.01 µM with HCT-116 colon; 4.03 µM in the experiment with OVCAR-5 ovarian. In addition, the GI50 was 1.61 µM with TK-10 renal, 16.5 µM with UACC-62 melanoma, 2.27 µM in the experiment with MALME-3M melanoma and 1.71 µM in the experiment with A549 NSCLC. For the same compound, the TGI in the experiment with SW-620 colon was over 100 µM; with SNB-75 CNS, 5.21 µM; in the experiment on EKVX NSCLC, 16.5 µM; in the experiment on MOLT-4 leukemia, over 100 µM; in the experiment with HCT-116 colon, 11.9 µM; in the experiment with OVCAR-5 ovarian, 24 µM. Moreover, the TGI is 6.33 µM with TK-10 renal, 43.5 µM in the experiment on UACC-62 melanoma, 10.6 µM with MALME-3M melanoma and 18.8 µM in the experiment with A549 NSCLC.
Turning to `COC(=O)C(=O)C(C(=O)C=C(C)C)C(=O)C(=O)Nc1ccc(Cl)cc1C` (centres undefined), the TGI with SNB-75 CNS, with EKVX NSCLC, with MOLT-4 leukemia, with HCT-116 colon, in the experiment with OVCAR-5 ovarian and with TK-10 renal was over 100 µM each time. Moreover, the TGI in the experiment on UACC-62 melanoma, in the experiment with MALME-3M melanoma and in the experiment on A549 NSCLC was over 100 µM each time.
In the case of `CC(=O)SCCC1c2[nH]c3ccccc3c2CCN1O` (centres undefined), the TGI with SW-620 colon was over 100 µM; with SNB-75 CNS, 86.4 µM; with EKVX NSCLC it was over 100 µM; in the experiment with MOLT-4 leukemia it was over 100 µM; with OVCAR-5 ovarian, over 100 µM; in the experiment with TK-10 renal, over 100 µM. The TGI with UACC-62 melanoma, with MALME-3M melanoma and in the experiment on A549 NSCLC was over 100 µM in each case.
Regarding `COc1cc2c3c(n(CCCBr)c(=O)c2cc1OC)-c1ccc(NC(C)=O)cc1C3=O`, the GI50 is 0.963 µM in the experiment with SW-620 colon; 12.1 µM with SNB-75 CNS; 47.8 µM in the experiment with EKVX NSCLC; 2.58 µM in the experiment on HCT-116 colon; 52.6 µM in the experiment with OVCAR-5 ovarian; 19.7 µM in the experiment with TK-10 renal. For the same compound, the GI50 with UACC-62 melanoma was 2.1 µM; in the experiment with MALME-3M melanoma, 60.9 µM; with A549 NSCLC, 25.4 µM. Besides, the TGI was over 100 µM in the experiment on SW-620 colon; 54 µM in the experiment with SNB-75 CNS; over 100 µM in the experiment on EKVX NSCLC; 18.1 µM with HCT-116 colon; over 100 µM with OVCAR-5 ovarian; over 100 µM in the experiment on TK-10 renal. The TGI in the experiment on UACC-62 melanoma was 15.7 µM; in the experiment with MALME-3M melanoma it was over 100 µM; in the experiment on A549 NSCLC it was over 100 µM.
As for `CN1C(NC(=O)c2ccc(Cl)nc2)=NS(=O)(=O)c2cc(Cl)ccc21`, the GI50 in the experiment on SW-620 colon, with SNB-75 CNS, with EKVX NSCLC, with MOLT-4 leukemia, in the experiment with HCT-116 colon and in the experiment on TK-10 renal was over 100 µM in each case. Also, the GI50 in the experiment with UACC-62 melanoma, in the experiment on MALME-3M melanoma and with A549 NSCLC was over 100 µM each time. For the same compound, the TGI in the experiment on SW-620 colon, in the experiment with SNB-75 CNS, in the experiment with EKVX NSCLC, in the experiment on MOLT-4 leukemia, with HCT-116 colon and with TK-10 renal was over 100 µM in each case. Also, the TGI with UACC-62 melanoma, with MALME-3M melanoma and in the experiment with A549 NSCLC was over 100 µM each time.
Take `CSc1ccc(/C=C2/C[N+](C)(C)C/C(=C/c3ccc(SC)cc3)C2=O)cc1`: the TGI with SW-620 colon was 28.1 µM; with SNB-75 CNS it was 62.4 µM; with EKVX NSCLC, 35.1 µM; in the experiment on MOLT-4 leukemia, 67.4 µM; with OVCAR-5 ovarian, 44 µM; in the experiment on TK-10 renal, over 100 µM. Further, the TGI is 27.5 µM with MALME-3M melanoma and over 100 µM in the experiment on A549 NSCLC.
As to `NCCCCn1c2c(c3ccccc3c1=O)C(=O)c1ccccc1-2`, the GI50 in the experiment on SW-620 colon was under 0.0185 µM; in the experiment with SNB-75 CNS, 0.372 µM; with EKVX NSCLC it was 1.21 µM; in the experiment on HCT-116 colon, 0.092 µM; with OVCAR-5 ovarian, 0.494 µM; with TK-10 renal, 0.226 µM. Also, the GI50 was 0.0467 µM with UACC-62 melanoma, 0.311 µM with MALME-3M melanoma and 0.0263 µM with A549 NSCLC. The TGI in the experiment with SW-620 colon came to 1.38 µM; in the experiment with SNB-75 CNS it was 2.37 µM; in the experiment on EKVX NSCLC, 4.62 µM; in the experiment with HCT-116 colon, 1.76 µM; with OVCAR-5 ovarian, 1.37 µM; with TK-10 renal, 1.25 µM. In addition, the TGI in the experiment on UACC-62 melanoma came to 0.422 µM; with MALME-3M melanoma it was 1.12 µM; with A549 NSCLC, 0.361 µM.
In the case of `O=C1C2=C(CC3C(C2)C3(Br)Br)C(=O)C2=C1CC1C(C2)C1(Br)Br` (centres undefined), the TGI in the experiment on SNB-75 CNS, with EKVX NSCLC, in the experiment on MOLT-4 leukemia, in the experiment with HCT-116 colon, in the experiment with OVCAR-5 ovarian and in the experiment on TK-10 renal was over 100 µM each time. Moreover, the TGI with UACC-62 melanoma, in the experiment with MALME-3M melanoma and in the experiment with A549 NSCLC was over 100 µM each time.
As to `CN(C)C(=S)/N=c1\ss/c(=N\C(=S)N(C)C)n1-c1ccc2c(c1)OCO2`, the TGI in the experiment with SW-620 colon, with SNB-75 CNS, in the experiment with EKVX NSCLC, with HCT-116 colon, in the experiment with OVCAR-5 ovarian and with TK-10 renal was over 100 µM in each case. Moreover, the TGI with UACC-62 melanoma, in the experiment with MALME-3M melanoma and in the experiment on A549 NSCLC was over 100 µM each time.
Take `COc1cccc(NCc2nnc(Nc3ccc(Cl)cc3)c3ccccc23)c1`: the GI50 in the experiment on SW-620 colon is 2.98 µM; with SNB-75 CNS, 0.293 µM; with EKVX NSCLC, 0.588 µM; in the experiment on MOLT-4 leukemia it was 1.1 µM; with HCT-116 colon, 0.881 µM; with OVCAR-5 ovarian, 3.38 µM. Moreover, the GI50 in the experiment with UACC-62 melanoma is 1 µM; in the experiment on MALME-3M melanoma it was 1.22 µM; in the experiment on A549 NSCLC, 1.93 µM. In addition, the TGI in the experiment on SW-620 colon came out at 8.13 µM; in the experiment with SNB-75 CNS, 5.27 µM; with EKVX NSCLC, 6.4 µM; in the experiment on MOLT-4 leukemia, 7.57 µM; in the experiment with HCT-116 colon, 4.2 µM; with OVCAR-5 ovarian, 11.8 µM. Besides, the values for the TGI in the experiment with UACC-62 melanoma, with MALME-3M melanoma and with A549 NSCLC were 5.76 µM, 6.23 µM and 9.42 µM, respectively.
